Measured values from publication PMC6151383 (Molecules : A Journal of Synthetic Chemistry and Natural …, 2017).
≈ marks a conversion by molar mass, not a printed value.

System: Mycobacterium tuberculosis 331/88 (H37Rv)
Assay: In vitro antimycobacterial MIC, M. tuberculosis
Type: cell-based
Conditions: 336 h, 14 d incubation, read-out: MIC Mtb. 331/88 14 d

| SMILES | MIC [µM] |
| --- | --- |
| Nc1ccc(S(=O)(=O)Nc2ncccn2)cc1 [SDZ 1, sulfadiazine, reference compound] | 32 (≈ 8.01 µg/mL) |

Same assay, conditions: 504 h, 21 d incubation, read-out: MIC Mtb. 331/88 21 d

| SMILES | MIC [µM] |
| --- | --- |
| Nc1ccc(S(=O)(=O)Nc2ncccn2)cc1 [SDZ 1, sulfadiazine, reference compound] | 62.5 (≈ 15.6 µg/mL) |

System: Staphylococcus epidermidis H 6966/08
Assay: Antibacterial microdilution broth MIC, S. epidermidis
Type: cell-based
Conditions: Staphylococcus epidermidis, H6966/08; 48 h incubation; read-out: MIC SE 48 h

| SMILES | MIC [µM] |
| --- | --- |
| Nc1ccc(S(=O)(=O)Nc2ncccn2)cc1 [SDZ 1, sulfadiazine, reference compound] | > 500 |

System: Candida sp.
Assay: Selectivity index for Candida sp. (IC50 HepG2/MIC)
Type: cell-based
Conditions: all Candida species

| SMILES | SI for Candida sp. |
| --- | --- |
| Nc1ccc(S(=O)(=O)Nc2ncccn2)cc1 [SDZ 1, sulfadiazine, reference compound] | inactive |

System: Staphylococcus aureus CCM 4516/08
Assay: Antibacterial microdilution broth MIC, S. aureus
Type: cell-based
Conditions: Staphylococcus aureus, CCM4516; 48 h incubation; read-out: MIC SA 48 h

| SMILES | MIC [µM] |
| --- | --- |
| Nc1ccc(S(=O)(=O)Nc2ncccn2)cc1 [SDZ 1, sulfadiazine, reference compound] | > 500 |

System: Mycobacterium kansasii 235/80
Assay: In vitro antimycobacterial MIC, M. kansasii 235/80
Type: cell-based
Conditions: 235/80, 168 h, 7 d incubation, read-out: MIC M. kansasii 235/80 7 d

| SMILES | MIC [µM] |
| --- | --- |
| Nc1ccc(S(=O)(=O)Nc2ncccn2)cc1 [SDZ 1, sulfadiazine, reference compound] | 16 (≈ 4 µg/mL) |

Same assay, conditions: 235/80, 336 h, 14 d incubation, read-out: MIC M. kansasii 235/80 14 d

| SMILES | MIC [µM] |
| --- | --- |
| Nc1ccc(S(=O)(=O)Nc2ncccn2)cc1 [SDZ 1, sulfadiazine, reference compound] | 16 (≈ 4 µg/mL) |

Same assay, conditions: 235/80, 504 h, 21 d incubation, read-out: MIC M. kansasii 235/80 21 d

| SMILES | MIC [µM] |
| --- | --- |
| Nc1ccc(S(=O)(=O)Nc2ncccn2)cc1 [SDZ 1, sulfadiazine, reference compound] | 32 (≈ 8.01 µg/mL) |

System: Enterococcus faecalis J 14365/08
Assay: Antibacterial microdilution broth MIC, E. faecalis
Type: cell-based
Conditions: Enterococcus faecalis, J14365/08; 48 h incubation; read-out: MIC EF 48 h

| SMILES | MIC [µM] |
| --- | --- |
| Nc1ccc(S(=O)(=O)Nc2ncccn2)cc1 [SDZ 1, sulfadiazine, reference compound] | > 500 |

System: ESBL-positive Klebsiella pneumoniae J 14368/08
Assay: not given
Conditions: 24 h

| SMILES | MIC KP-E 24 h [µM] |
| --- | --- |
| Nc1ccc(S(=O)(=O)Nc2ncccn2)cc1 [SDZ 1, sulfadiazine, reference compound] | >500 |

Same assay, conditions: 48 h

| SMILES | MIC KP-E 48 h [µM] |
| --- | --- |
| Nc1ccc(S(=O)(=O)Nc2ncccn2)cc1 [SDZ 1, sulfadiazine, reference compound] | >500 |

System: Pseudomonas aeruginosa CCM 1961
Assay: Antibacterial microdilution broth MIC, P. aeruginosa
Type: cell-based
Conditions: Pseudomonas aeruginosa, CCM1961; 48 h incubation; read-out: MIC PA 48 h

| SMILES | MIC [µM] |
| --- | --- |
| Nc1ccc(S(=O)(=O)Nc2ncccn2)cc1 [SDZ 1, sulfadiazine, reference compound] | > 500 |

System: Trichophyton interdigitale 445
Assay: Antifungal microdilution broth MIC, T. interdigitale
Type: cell-based
Conditions: SI = IC50 (HepG2)/MIC, Trichophyton interdigitale

| SMILES | SI for TI |
| --- | --- |
| Nc1ccc(S(=O)(=O)Nc2ncccn2)cc1 [SDZ 1, sulfadiazine, reference compound] | inactive |

System: M. kansasii 6509/96
Assay: In vitro antimycobacterial MIC, M. kansasii clinical isolate
Type: cell-based
Conditions: Mycobacterium kansasii, 6509/96, 168 h; 7 d incubation; read-out: MIC M. kansasii 6509/96 7 d

| SMILES | MIC [µM] |
| --- | --- |
| Nc1ccc(S(=O)(=O)Nc2ncccn2)cc1 [SDZ 1, sulfadiazine, reference compound] | 8 (≈ 2 µg/mL) |

Same assay, conditions: Mycobacterium kansasii, 6509/96, 336 h; 14 d incubation; read-out: MIC M. kansasii 6509/96 14 d

| SMILES | MIC [µM] |
| --- | --- |
| Nc1ccc(S(=O)(=O)Nc2ncccn2)cc1 [SDZ 1, sulfadiazine, reference compound] | 8 (≈ 2 µg/mL) |

Same assay, conditions: Mycobacterium kansasii, 6509/96, 504 h; 21 d incubation; read-out: MIC M. kansasii 6509/96 21 d

| SMILES | MIC [µM] |
| --- | --- |
| Nc1ccc(S(=O)(=O)Nc2ncccn2)cc1 [SDZ 1, sulfadiazine, reference compound] | 8 (≈ 2 µg/mL) |

System: Escherichia coli CCM 4517
Assay: Antibacterial microdilution broth MIC, E. coli
Type: cell-based
Conditions: Escherichia coli, CCM4517; 48 h incubation; read-out: MIC EC 48 h

| SMILES | MIC [µM] |
| --- | --- |
| Nc1ccc(S(=O)(=O)Nc2ncccn2)cc1 [SDZ 1, sulfadiazine, reference compound] | > 500 |

System: Klebsiella pneumoniae D 11750/08
Assay: not given
Conditions: 24 h

| SMILES | MIC KP 24 h [µM] |
| --- | --- |
| Nc1ccc(S(=O)(=O)Nc2ncccn2)cc1 [SDZ 1, sulfadiazine, reference compound] | >500 |

Same assay, conditions: 48 h

| SMILES | MIC KP 48 h [µM] |
| --- | --- |
| Nc1ccc(S(=O)(=O)Nc2ncccn2)cc1 [SDZ 1, sulfadiazine, reference compound] | >500 |

System: Mycobacterium avium 330/88
Assay: In vitro antimycobacterial MIC, M. avium
Type: cell-based
Conditions: 330/88, 336 h, 14 d incubation, read-out: MIC M. avium 330/88 14 d

| SMILES | MIC [µM] |
| --- | --- |
| Nc1ccc(S(=O)(=O)Nc2ncccn2)cc1 [SDZ 1, sulfadiazine, reference compound] | 62.5 (≈ 15.6 µg/mL) |

Same assay, conditions: 330/88, 504 h, 21 d incubation, read-out: MIC M. avium 330/88 21 d

| SMILES | MIC [µM] |
| --- | --- |
| Nc1ccc(S(=O)(=O)Nc2ncccn2)cc1 [SDZ 1, sulfadiazine, reference compound] | 62.5 (≈ 15.6 µg/mL) |
